Reference: US5908868A, “Retinol derivatives useful for enhancing immune response” (priority 1995, dated 1999)

Columns and labels:
thymocytes = experiment: Proliferation of Con A activated thymocytes in serum-free medium; format: cell-based, BALB/c mouse; details: Con A 0.5 μg/ml, retinol 3×10^-6 M, ITLB
Procedure: Purified thymocytes (5×10^5 cells/well) were stimulated by TCR crosslinking with immobilized anti-CD3e antibody (FIG. 15A) or 0.4 μg/ml Con A (FIG. 15B) in serum-free ITLB medium. The indicated amounts of retinoids were added either once at the beginning of the experiment (marked as "1x") or every 12 hours thereafter (marked as "6x"). DNA synthesis was measured after 72 hours by tritiated thymidine uptake as described.
Thymuses of 3 to 6-week-old BALB/c mice were teased in serum-free RPMI medium supplemented with 1% BSA, 10^-6 M linoleic acid and antibiotics. […] Cell viability was evaluated by trypan blue dye exclusion. To determine the extent of depletion of accessory cells, samples were stained with FITC-conjugated anti-Fc receptor antibody and analyzed by flow cytometry on a FACScan instrument (Becton Dickinson). No FcR-bearing cells were detected by this procedure.
Cells were cultured in serum-free medium, referred to as ITLB, containing RPMI 1640 supplemented with 8×10^-7 M insulin (5 μg/ml), 7×10^-8 M transferrin (5 μg/ml), 2×10^-6 M linoleic acid, 2×10^-6 M delipidated BSA (0.12 mg/ml), 2 mM L-glutamine, 1 mM sodium pyruvate and antibiotics. […] The optimal concentration for stimulation of T cells was determined for each batch of anti-CD3 mAb and Con A. The optimal range of Con A was particularly narrow in serum-free medium (0.5-0.2 μg/ml) and varied with the cell density used. […]

5/2 lymphoblastoid cells = format: in vitro ADME, human
Procedure: FIG. 24. Kinetics of biosynthesis of 14HRR in lymphoblastoid cells. 50 ml ITLB 600,000 5/2 cells/ml were incubated with 20 μCi of ^3 H retinol in serum-free ITLB medium. Cell pellets corresponding to 10 ml of culture were delipidated at 20 minute intervals and the corresponding lipid fraction separated on an analytical C18 reversed-phase column (see FIG. 20). Radioactive peaks were identified by coelution with cold reference retinoids.
The kinetics of biosynthesis of 13,14DHR and 14HRR were determined in 5/2 lymphoblastoid cells. These cells were cultured in the presence of ^3 H retinol for different time periods, and the cell-associated retinoids extracted as referenced above. They were then chromatographed on an analytical C18 column as described in FIG. 20. The sizes of peaks emerging at 16.8 minutes, representing 13,14DHR, and 18.5 minutes, representing 14HRR, were measured and plotted in the bar diagram of FIG. 24.

SMILES: CC1=C(/C=C/C(C)=C/C=C/C(C)=C/CO)C(C)(C)CCC1 [retinol, all-trans retinol]
- thymocyte proliferation (thymocytes): growing exponentially
- order of metabolite production (5/2 lymphoblastoid cells): production of 13,14DHR precedes that of 14HRR
